Data reported in ChEMBL document CHEMBL4507273 (2021).

What was measured:
[1] = molecular target: D(1A) dopamine receptor (Homo sapiens, UniProt P21728); assay: GPCRScan assay: inhibition of D1; set-up: radioligand conc. used [nm] 0.6 – 1.3, parental cells HEKT
[2] = molecular target: Son of sevenless homolog 2 (Homo sapiens, UniProt Q07890, G12C)
[3] = system: Tyrosine-protein kinase ABL1 (Homo sapiens), P00519 [F317I]; conditions: Compound concentration 1000.0 nM
[4] = system: Tyrosine-protein kinase ABL1 (Homo sapiens), P00519 [H396P]; conditions: Compound concentration 1000.0 nM
[5] = molecular target: RAC-alpha serine/threonine-protein kinase (Homo sapiens) (UniProt P31749); conditions: Compound concentration 1000.0 nM
[6] = molecular target: Cyclin-dependent kinase 13 (Homo sapiens) (UniProt Q14004); conditions: Compound concentration 1000.0 nM
[7] = molecular target: Casein kinase I isoform alpha (Homo sapiens) (UniProt P48729); conditions: Compound concentration 1000.0 nM
[8] = molecular target: Epithelial discoidin domain-containing receptor 1 (Homo sapiens) (UniProt Q08345); conditions: Compound concentration 1000.0 nM
[9] = molecular target: Dual specificity tyrosine-phosphorylation-regulated kinase 1B (Homo sapiens) (UniProt Q9Y463); conditions: Compound concentration 1000.0 nM
Dual specificity tyrosine-phosphorylation-regulated kinase 1B (Homo sapiens), sequence (Q9Y463 whole entry, looked up): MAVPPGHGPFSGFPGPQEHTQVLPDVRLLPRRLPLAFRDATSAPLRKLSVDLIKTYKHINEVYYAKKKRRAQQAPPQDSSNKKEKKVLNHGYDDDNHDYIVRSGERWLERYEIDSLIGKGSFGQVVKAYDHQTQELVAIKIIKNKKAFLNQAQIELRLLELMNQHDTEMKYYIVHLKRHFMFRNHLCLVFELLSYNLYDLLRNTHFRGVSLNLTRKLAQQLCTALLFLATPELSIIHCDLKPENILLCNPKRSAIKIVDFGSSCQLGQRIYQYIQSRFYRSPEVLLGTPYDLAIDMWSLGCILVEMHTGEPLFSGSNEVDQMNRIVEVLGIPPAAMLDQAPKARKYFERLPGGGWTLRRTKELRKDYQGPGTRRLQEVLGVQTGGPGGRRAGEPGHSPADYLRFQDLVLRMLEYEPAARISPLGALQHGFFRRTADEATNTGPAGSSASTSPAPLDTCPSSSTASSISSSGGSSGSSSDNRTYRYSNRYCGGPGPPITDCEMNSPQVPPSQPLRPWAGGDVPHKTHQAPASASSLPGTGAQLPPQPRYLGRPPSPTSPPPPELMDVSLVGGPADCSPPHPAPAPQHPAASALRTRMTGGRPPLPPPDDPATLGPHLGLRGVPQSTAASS

[10] = molecular target: Receptor tyrosine-protein kinase erbB-3 (Homo sapiens) (UniProt P21860); conditions: Compound concentration 1000.0 nM
[11] = molecular target: Receptor tyrosine-protein kinase erbB-4 (Homo sapiens) (UniProt Q15303); conditions: Compound concentration 1000.0 nM
Receptor tyrosine-protein kinase erbB-4 (Homo sapiens), sequence (Q15303 whole entry): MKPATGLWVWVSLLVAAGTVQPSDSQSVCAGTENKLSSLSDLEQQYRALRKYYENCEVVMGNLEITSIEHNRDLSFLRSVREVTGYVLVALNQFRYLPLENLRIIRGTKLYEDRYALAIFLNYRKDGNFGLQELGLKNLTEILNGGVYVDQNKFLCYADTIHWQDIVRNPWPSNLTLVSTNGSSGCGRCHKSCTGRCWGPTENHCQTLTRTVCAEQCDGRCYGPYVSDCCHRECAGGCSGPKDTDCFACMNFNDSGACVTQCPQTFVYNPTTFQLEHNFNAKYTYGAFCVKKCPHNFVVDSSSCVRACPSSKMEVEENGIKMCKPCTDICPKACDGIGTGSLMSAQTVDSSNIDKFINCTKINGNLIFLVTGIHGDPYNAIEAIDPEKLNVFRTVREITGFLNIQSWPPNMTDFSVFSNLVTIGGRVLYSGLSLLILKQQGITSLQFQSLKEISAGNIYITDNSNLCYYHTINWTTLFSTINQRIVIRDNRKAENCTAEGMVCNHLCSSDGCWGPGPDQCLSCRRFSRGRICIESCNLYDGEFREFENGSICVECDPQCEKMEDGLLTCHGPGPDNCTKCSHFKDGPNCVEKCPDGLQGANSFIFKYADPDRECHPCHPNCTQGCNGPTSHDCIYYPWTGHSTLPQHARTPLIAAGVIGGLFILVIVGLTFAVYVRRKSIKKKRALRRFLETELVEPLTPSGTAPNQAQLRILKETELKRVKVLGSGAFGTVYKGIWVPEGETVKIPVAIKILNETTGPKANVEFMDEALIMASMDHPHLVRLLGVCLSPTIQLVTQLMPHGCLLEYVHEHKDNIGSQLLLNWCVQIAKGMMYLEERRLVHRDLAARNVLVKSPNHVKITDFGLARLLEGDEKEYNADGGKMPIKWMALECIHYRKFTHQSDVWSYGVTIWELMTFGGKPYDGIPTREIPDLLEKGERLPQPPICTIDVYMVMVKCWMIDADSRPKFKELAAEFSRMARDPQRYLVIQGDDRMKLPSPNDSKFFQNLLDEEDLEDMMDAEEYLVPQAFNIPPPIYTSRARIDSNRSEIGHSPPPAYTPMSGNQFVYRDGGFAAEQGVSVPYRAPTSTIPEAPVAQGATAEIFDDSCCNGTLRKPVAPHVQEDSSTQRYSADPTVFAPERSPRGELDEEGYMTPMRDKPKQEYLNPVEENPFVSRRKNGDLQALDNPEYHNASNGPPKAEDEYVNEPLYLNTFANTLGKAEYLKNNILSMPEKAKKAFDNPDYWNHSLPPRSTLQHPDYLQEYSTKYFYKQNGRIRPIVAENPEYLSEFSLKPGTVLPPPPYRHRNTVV

[12] = molecular target: Mitogen-activated protein kinase 15 (Homo sapiens) (UniProt Q8TD08); conditions: Compound concentration 1000.0 nM
[13] = system: Receptor-type tyrosine-protein kinase FLT3 (Homo sapiens), P36888 [UNDEFINED MUTATION]; conditions: Compound concentration 1000.0 nM
Receptor-type tyrosine-protein kinase FLT3 (Homo sapiens), P36888 [UNDEFINED MUTATION], sequence (P36888 whole entry, looked up, change not shown): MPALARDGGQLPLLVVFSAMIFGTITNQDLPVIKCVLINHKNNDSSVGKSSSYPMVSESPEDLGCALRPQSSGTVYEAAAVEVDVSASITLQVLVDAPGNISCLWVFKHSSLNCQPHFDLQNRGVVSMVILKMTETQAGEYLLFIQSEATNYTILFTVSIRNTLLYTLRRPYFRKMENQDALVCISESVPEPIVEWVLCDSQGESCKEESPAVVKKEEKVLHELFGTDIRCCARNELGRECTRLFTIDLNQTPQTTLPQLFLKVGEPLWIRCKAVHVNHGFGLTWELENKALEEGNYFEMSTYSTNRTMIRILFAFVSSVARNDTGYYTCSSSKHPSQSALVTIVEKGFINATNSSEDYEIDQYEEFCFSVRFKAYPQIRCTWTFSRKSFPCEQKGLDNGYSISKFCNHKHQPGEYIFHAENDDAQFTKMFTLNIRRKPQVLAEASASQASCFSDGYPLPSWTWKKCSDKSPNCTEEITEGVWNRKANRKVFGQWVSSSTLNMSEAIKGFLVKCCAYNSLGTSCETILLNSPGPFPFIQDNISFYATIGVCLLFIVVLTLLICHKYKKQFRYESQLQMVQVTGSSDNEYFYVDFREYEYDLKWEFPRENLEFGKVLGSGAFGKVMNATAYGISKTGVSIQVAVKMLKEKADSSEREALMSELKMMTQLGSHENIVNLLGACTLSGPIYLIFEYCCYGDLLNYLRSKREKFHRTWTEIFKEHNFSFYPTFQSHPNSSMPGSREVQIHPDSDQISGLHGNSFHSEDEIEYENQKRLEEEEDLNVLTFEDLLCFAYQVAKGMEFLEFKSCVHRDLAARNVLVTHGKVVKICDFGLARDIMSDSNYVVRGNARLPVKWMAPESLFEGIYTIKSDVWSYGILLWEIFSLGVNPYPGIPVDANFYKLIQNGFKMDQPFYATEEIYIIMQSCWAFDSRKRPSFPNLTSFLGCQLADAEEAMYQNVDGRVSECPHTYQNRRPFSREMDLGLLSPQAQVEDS

[14] = system: Receptor-type tyrosine-protein kinase FLT3 (Homo sapiens), P36888 [UNDEFINED MUTATION]; conditions: Compound concentration 1000.0 nM; remark: listed apart in the source
[15] = molecular target: Vascular endothelial growth factor receptor 3 (Homo sapiens) (UniProt P35916); conditions: Compound concentration 1000.0 nM
[16] = molecular target: Glycogen synthase kinase-3 beta (Homo sapiens) (UniProt P49841); conditions: Compound concentration 1000.0 nM
[17] = molecular target: Hormonally up-regulated neu tumor-associated kinase (Homo sapiens) (UniProt P57058); conditions: Compound concentration 1000.0 nM
[18] = molecular target: Interleukin-1 receptor-associated kinase 1 (Homo sapiens) (UniProt P51617); conditions: Compound concentration 1000.0 nM
[19] = molecular target: Tyrosine-protein kinase JAK1 (Homo sapiens) (UniProt P23458); conditions: Compound concentration 1000.0 nM
[20] = molecular target: Serine/threonine-protein kinase STK11 (Homo sapiens) (UniProt Q15831); conditions: Compound concentration 1000.0 nM
[21] = molecular target: Leukocyte tyrosine kinase receptor (Homo sapiens) (UniProt P29376); conditions: Compound concentration 1000.0 nM
Leukocyte tyrosine kinase receptor (Homo sapiens), sequence (P29376 whole entry): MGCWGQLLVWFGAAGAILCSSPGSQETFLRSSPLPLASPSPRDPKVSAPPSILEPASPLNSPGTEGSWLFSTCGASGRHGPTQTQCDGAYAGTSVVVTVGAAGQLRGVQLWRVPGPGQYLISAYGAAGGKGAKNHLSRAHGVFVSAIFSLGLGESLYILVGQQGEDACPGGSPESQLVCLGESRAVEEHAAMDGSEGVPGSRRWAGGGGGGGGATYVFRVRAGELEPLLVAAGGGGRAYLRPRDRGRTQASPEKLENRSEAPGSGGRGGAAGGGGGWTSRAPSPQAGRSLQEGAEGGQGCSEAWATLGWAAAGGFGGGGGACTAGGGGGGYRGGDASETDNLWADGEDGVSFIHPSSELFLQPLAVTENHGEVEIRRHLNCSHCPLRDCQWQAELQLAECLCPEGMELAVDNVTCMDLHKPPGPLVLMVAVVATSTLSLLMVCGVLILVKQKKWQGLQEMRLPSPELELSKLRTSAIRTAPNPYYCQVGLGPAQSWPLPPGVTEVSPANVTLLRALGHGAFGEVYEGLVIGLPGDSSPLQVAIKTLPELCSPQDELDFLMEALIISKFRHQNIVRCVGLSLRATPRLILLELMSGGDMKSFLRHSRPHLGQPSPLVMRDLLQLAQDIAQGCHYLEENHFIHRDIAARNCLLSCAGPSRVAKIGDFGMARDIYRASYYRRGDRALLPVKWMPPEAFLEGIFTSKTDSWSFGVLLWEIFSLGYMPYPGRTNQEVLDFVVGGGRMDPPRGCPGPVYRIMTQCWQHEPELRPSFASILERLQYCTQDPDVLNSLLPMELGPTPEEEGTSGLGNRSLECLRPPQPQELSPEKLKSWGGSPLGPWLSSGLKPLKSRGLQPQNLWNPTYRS

[22] = molecular target: Tyrosine-protein kinase Lyn (Homo sapiens) (UniProt P07948); conditions: Compound concentration 1000.0 nM
[23] = molecular target: Serine/threonine-protein kinase MAK (Homo sapiens) (UniProt P20794); conditions: Compound concentration 1000.0 nM
[24] = molecular target: Mitogen-activated protein kinase kinase kinase 4 (Homo sapiens) (UniProt Q9Y6R4); conditions: Compound concentration 1000.0 nM
[25] = molecular target: Dual specificity mitogen-activated protein kinase kinase 6 (Homo sapiens) (UniProt P52564); conditions: Compound concentration 1000.0 nM
[26] = molecular target: Serine/threonine-protein kinase mTOR (Homo sapiens) (UniProt P42345); conditions: Compound concentration 1000.0 nM
[27] = molecular target: Serine/threonine-protein kinase 38 (Homo sapiens) (UniProt Q15208); conditions: Compound concentration 1000.0 nM
[28] = molecular target: Mitogen-activated protein kinase kinase kinase 14 (Homo sapiens) (UniProt Q99558); conditions: Compound concentration 1000.0 nM
[29] = molecular target: 3-phosphoinositide-dependent protein kinase 1 (Homo sapiens) (UniProt O15530); conditions: Compound concentration 1000.0 nM
[30] = molecular target: Serine/threonine-protein kinase pim-1 (Homo sapiens) (UniProt P11309); conditions: Compound concentration 1000.0 nM
[31] = molecular target: Serine/threonine-protein kinase N1 (Homo sapiens) (UniProt Q16512); conditions: Compound concentration 1000.0 nM
[32] = molecular target: Receptor-interacting serine/threonine-protein kinase 1 (Homo sapiens) (UniProt Q13546); conditions: Compound concentration 1000.0 nM
[33] = molecular target: Rho-associated protein kinase 2 (Homo sapiens) (UniProt O75116); conditions: Compound concentration 1000.0 nM
[34] = molecular target: Ribosomal protein S6 kinase alpha-4 (Homo sapiens) (UniProt O75676); conditions: Compound concentration 1000.0 nM
Ribosomal protein S6 kinase alpha-4 (Homo sapiens), sequence (O75676 whole entry, looked up): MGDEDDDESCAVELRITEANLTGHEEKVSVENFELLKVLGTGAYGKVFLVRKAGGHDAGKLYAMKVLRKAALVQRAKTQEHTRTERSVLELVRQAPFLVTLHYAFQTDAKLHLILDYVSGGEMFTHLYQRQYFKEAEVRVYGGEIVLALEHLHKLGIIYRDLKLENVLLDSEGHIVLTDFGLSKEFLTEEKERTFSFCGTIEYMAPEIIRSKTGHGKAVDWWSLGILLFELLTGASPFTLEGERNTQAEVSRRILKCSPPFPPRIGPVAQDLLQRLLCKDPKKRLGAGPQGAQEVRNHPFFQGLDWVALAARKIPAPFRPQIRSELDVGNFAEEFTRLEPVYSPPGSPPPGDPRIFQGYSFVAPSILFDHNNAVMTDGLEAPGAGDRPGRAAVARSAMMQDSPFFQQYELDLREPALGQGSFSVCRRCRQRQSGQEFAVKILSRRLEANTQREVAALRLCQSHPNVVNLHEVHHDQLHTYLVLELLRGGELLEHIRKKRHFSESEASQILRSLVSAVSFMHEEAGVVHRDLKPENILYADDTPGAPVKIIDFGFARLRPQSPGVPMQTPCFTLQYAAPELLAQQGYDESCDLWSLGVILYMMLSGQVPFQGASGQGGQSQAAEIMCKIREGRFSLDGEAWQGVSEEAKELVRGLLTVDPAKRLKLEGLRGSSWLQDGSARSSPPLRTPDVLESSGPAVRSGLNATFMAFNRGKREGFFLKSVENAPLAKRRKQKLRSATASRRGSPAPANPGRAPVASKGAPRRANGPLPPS

[35] = molecular target: T1, 5-hydroxytryptamine receptor 1A (Homo sapiens) (UniProt P08908); conditions: Compound concentration 10.0 uM
T1 sequence (whole entry): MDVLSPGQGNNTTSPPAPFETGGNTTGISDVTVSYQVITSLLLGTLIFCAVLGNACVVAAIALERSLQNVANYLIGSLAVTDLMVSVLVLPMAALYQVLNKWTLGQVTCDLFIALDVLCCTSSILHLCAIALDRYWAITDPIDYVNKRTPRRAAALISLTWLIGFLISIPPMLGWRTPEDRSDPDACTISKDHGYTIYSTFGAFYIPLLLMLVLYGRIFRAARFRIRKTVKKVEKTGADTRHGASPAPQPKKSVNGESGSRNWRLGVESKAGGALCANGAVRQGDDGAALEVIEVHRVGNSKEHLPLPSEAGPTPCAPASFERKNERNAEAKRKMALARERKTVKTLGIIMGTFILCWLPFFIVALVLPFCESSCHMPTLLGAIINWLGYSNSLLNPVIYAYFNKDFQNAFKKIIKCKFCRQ

[36] = molecular target: 5-hydroxytryptamine receptor 2A (Homo sapiens, UniProt P28223); conditions: Compound concentration 10.0 uM
[37] = molecular target: 5-hydroxytryptamine receptor 7 (Homo sapiens, UniProt P34969); conditions: Compound concentration 10.0 uM
[38] = molecular target: Muscarinic acetylcholine receptor M2 (Homo sapiens) (UniProt P08172); conditions: Compound concentration 10.0 uM
[39] = molecular target: Alpha-1D adrenergic receptor (Homo sapiens) (UniProt P25100); conditions: Compound concentration 10.0 uM

D(1A) dopamine receptor, sequence (P21728 whole entry): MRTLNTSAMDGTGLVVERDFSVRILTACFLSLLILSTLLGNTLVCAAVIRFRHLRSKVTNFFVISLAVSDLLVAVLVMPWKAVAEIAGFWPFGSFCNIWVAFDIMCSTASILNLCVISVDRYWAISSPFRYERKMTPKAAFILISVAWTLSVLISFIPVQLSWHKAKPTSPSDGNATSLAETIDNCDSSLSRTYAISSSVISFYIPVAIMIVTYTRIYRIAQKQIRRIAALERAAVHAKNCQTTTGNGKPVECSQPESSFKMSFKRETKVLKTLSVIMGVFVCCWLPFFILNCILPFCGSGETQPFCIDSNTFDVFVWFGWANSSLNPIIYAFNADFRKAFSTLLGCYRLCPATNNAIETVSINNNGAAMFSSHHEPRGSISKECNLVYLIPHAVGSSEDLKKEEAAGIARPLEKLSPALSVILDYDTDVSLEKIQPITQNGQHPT

Compound: CNCc1ccccc1-c1csc([C@H](C)Nc2nc(C)nc3cc(OC)c(OC)cc23)c1 [BAY-294]
- Ki ([1]; read-out: Ki): 718 nM
- Ki ([1]; read-out: pKi (converted)): 562 nM
- IC50 [2]: > 20000 nM (not active)
- residual activity [3]: 100%
- residual activity [4]: 89%
- residual activity [5]: 100%
- residual activity [6]: 93%
- residual activity [7]: 74%
- residual activity [8]: 100%
- residual activity [9]: 55%
- residual activity [10]: 87%
- residual activity [11]: 100%
- residual activity [12]: 100%
- residual activity [13]: 81%
- residual activity [14]: 79%
- residual activity [15]: 100%
- residual activity [16]: 100%
- residual activity [17]: 100%
- residual activity [18]: 80%
- residual activity [19]: 68%
- residual activity [20]: 100%
- residual activity [21]: 98%
- residual activity [22]: 100%
- residual activity [23]: 97%
- residual activity [24]: 100%
- residual activity [25]: 100%
- residual activity [26]: 100%
- residual activity [27]: 87%
- residual activity [28]: 100%
- residual activity [29]: 100%
- residual activity [30]: 100%
- residual activity [31]: 100%
- residual activity [32]: 100%
- residual activity [33]: 100%
- residual activity [34]: 100%
- inhibition [35]: 93.8%
- inhibition [36]: 99.2%
- inhibition [37]: 70.7%
- inhibition [38]: 65.4%
- inhibition [39]: 81.2%

Compound: CNCc1ccccc1-c1csc([C@@H](C)Nc2nc(C)nc3cc(OC)c(OC)cc23)c1 [BAY-293]
- Ki ([1]; read-out: Ki): 1270 nM
- IC50 [2]: > 20000 nM (not active)
- residual activity [3]: 100%
- residual activity [4]: 78%
- residual activity [5]: 100%
- residual activity [6]: 89%
- residual activity [7]: 73%
- residual activity [8]: 100%
- residual activity [9]: 64%
- residual activity [10]: 76%
- residual activity [11]: 97%
- residual activity [12]: 100%
- residual activity [13]: 48%
- residual activity [14]: 57%
- residual activity [15]: 83%
- residual activity [16]: 90%
- residual activity [17]: 100%
- residual activity [18]: 71%
- residual activity [19]: 73%
- residual activity [20]: 96%
- residual activity [21]: 97%
- residual activity [22]: 100%
- residual activity [23]: 100%
- residual activity [24]: 73%
- residual activity [25]: 86%
- residual activity [26]: 100%
- residual activity [27]: 60%
- residual activity [28]: 93%
- residual activity [29]: 92%
- residual activity [30]: 97%
- residual activity [31]: 100%
- residual activity [32]: 97%
- residual activity [33]: 93%
- residual activity [34]: 79%
- inhibition [35]: 56.5%
- inhibition [36]: 98.5%
- inhibition [37]: 76.2%
- inhibition [38]: 74.2%
- inhibition [39]: 75%
